Data published in ChEMBL document CHEMBL3885881, “DrugMatrix”.

Species: Rattus norvegicus
Assay: DrugMatrix - Regimen: Daily Repeat
Assay type: toxicity, organism-based, Sprague-Dawley
Set-up: regimen Daily Repeat, gender Male, age 6-8 weeks
Settings: in vivo, po, route oral GAVAGE, vehicle 100 % WATER; for ABSOLUTE BASOPHIL / ABSOLUTE EOSINOPHIL / ABSOLUTE LYMPHOCYTE / ABSOLUTE MONOCYTE / ABSOLUTE SEGMENTED NEUTROPHIL / BASOPHIL / EOSINOPHIL / ERYTHROCYTE COUNT / HEMATOCRIT / HEMOGLOBIN / LEUKOCYTE COUNT / LYMPHOCYTE / MEAN CORPUSCULAR HEMOGLOBIN / MEAN CORPUSCULAR HEMOGLOBIN CONCENTRATION / MEAN CORPUSCULAR VOLUME / MONOCYTE / NEUTROPHIL / NUCLEATED RED BLOOD CELLS / PLATELET COUNT: tissue Blood; for ALANINE AMINOTRANSFERASE / ALBUMIN / ALKALINE PHOSPHATASE / ASPARTATE AMINOTRANSFERASE / BLOOD UREA NITROGEN / CARBON DIOXIDE / CHLORIDE / CHOLESTEROL / CREATINE PHOSPHOKINASE / CREATININE / GLUCOSE / LACTATE DEHYDROGENASE / LIPASE / PHOSPHORUS / POTASSIUM / SODIUM / TOTAL BILIRUBIN / TOTAL PROTEIN / URIC ACID: tissue Plasma
[1] = 0 mg/kg, 72 h, dose level Control, time 3 day
[2] = 0 mg/kg, 120 h, dose level Control, time 5 day
[3] = 50 mg/kg, 72 h, dose level Low, time 3 day
[4] = 50 mg/kg, 120 h, dose level Low, time 5 day

SMILES: CC[C@H]1OC(=O)[C@H](C)[C@@H](O[C@H]2C[C@@](C)(OC)[C@@H](O)[C@H](C)O2)[C@H](C)[C@@H](O[C@@H]2O[C@H](C)C[C@H](N(C)C)[C@H]2O)[C@](C)(O)C[C@@H](C)CN(C)[C@H](C)[C@@H](O)[C@]1(C)O [AZITHROMYCIN]
- ABSOLUTE BASOPHIL [1]: 0 CELLS/uL
- ABSOLUTE EOSINOPHIL [1]: 33.67 CELLS/uL
- ABSOLUTE LYMPHOCYTE [1]: 11257.17 CELLS/uL
- ABSOLUTE MONOCYTE [1]: 72.17 CELLS/uL
- ABSOLUTE SEGMENTED NEUTROPHIL [1]: 1220.33 CELLS/uL
- BASOPHIL [1]: 0%
- EOSINOPHIL [1]: 0.33%
- ERYTHROCYTE COUNT [1]: 5 x10E6/uL
- HEMATOCRIT [1]: 32.62%
- HEMOGLOBIN [1]: 12.83 G/DL
- LEUKOCYTE COUNT [1]: 12.58 x10E3/uL
- LYMPHOCYTE [1]: 89%
- MEAN CORPUSCULAR HEMOGLOBIN [1]: 25.67 pg
- MEAN CORPUSCULAR HEMOGLOBIN CONCENTRATION [1]: 39.35 G/DL
- MEAN CORPUSCULAR VOLUME [1]: 65.23 fL
- MONOCYTE [1]: 0.67%
- NEUTROPHIL [1]: 10%
- NUCLEATED RED BLOOD CELLS [1]: 0 /100WBC
- PLATELET COUNT [1]: 1162.5 x10E3/uL
- ALANINE AMINOTRANSFERASE [1]: 45.33 u/L
- ALBUMIN [1]: 3.95 G/DL
- ALKALINE PHOSPHATASE [1]: 356.17 u/L
- ASPARTATE AMINOTRANSFERASE [1]: 81 u/L
- BLOOD UREA NITROGEN [1]: 11 mg/dL
- CARBON DIOXIDE [1]: 29.83 mmol/L
- CHLORIDE [1]: 97.8 MEQ/L
- CHOLESTEROL [1]: 65.17 mg/dL
- CREATINE PHOSPHOKINASE [1]: 211.33 u/L
- CREATININE [1]: 0.11 mg/dL
- GLUCOSE [1]: 164.67 mg/dL
- LACTATE DEHYDROGENASE [1]: 143.17 u/L
- LIPASE [1]: 10.17 u/L
- PHOSPHORUS [1]: 10.88 mg/dL
- POTASSIUM [1]: 6.08 MEQ/L
- SODIUM [1]: 141.54 MEQ/L
- TOTAL BILIRUBIN [1]: 0.23 mg/dL
- TOTAL PROTEIN [1]: 5.65 G/DL
- URIC ACID [1]: 1 mg/dL
- ABSOLUTE BASOPHIL [2]: 0 CELLS/uL
- ABSOLUTE EOSINOPHIL [2]: 48.67 CELLS/uL
- ABSOLUTE LYMPHOCYTE [2]: 9267.83 CELLS/uL
- ABSOLUTE MONOCYTE [2]: 194.33 CELLS/uL
- ABSOLUTE SEGMENTED NEUTROPHIL [2]: 572.5 CELLS/uL
- BASOPHIL [2]: 0%
- EOSINOPHIL [2]: 0.33%
- ERYTHROCYTE COUNT [2]: 5.41 x10E6/uL
- HEMATOCRIT [2]: 36.17%
- HEMOGLOBIN [2]: 13.9 G/DL
- LEUKOCYTE COUNT [2]: 10.08 x10E3/uL
- LYMPHOCYTE [2]: 92.17%
- MEAN CORPUSCULAR HEMOGLOBIN [2]: 25.73 pg
- MEAN CORPUSCULAR HEMOGLOBIN CONCENTRATION [2]: 38.45 G/DL
- MEAN CORPUSCULAR VOLUME [2]: 66.97 fL
- MONOCYTE [2]: 1.83%
- NEUTROPHIL [2]: 5.67%
- NUCLEATED RED BLOOD CELLS [2]: 0.33 /100WBC
- PLATELET COUNT [2]: 1122.33 x10E3/uL
- ALANINE AMINOTRANSFERASE [2]: 52.83 u/L
- ALBUMIN [2]: 4.12 G/DL
- ALKALINE PHOSPHATASE [2]: 367.33 u/L
- ASPARTATE AMINOTRANSFERASE [2]: 88 u/L
- BLOOD UREA NITROGEN [2]: 12.67 mg/dL
- CARBON DIOXIDE [2]: 33.67 mmol/L
- CHLORIDE [2]: 97 MEQ/L
- CHOLESTEROL [2]: 67.5 mg/dL
- CREATINE PHOSPHOKINASE [2]: 358.67 u/L
- CREATININE [2]: 0.14 mg/dL
- GLUCOSE [2]: 152.33 mg/dL
- LACTATE DEHYDROGENASE [2]: 180 u/L
- LIPASE [2]: 10.5 u/L
- PHOSPHORUS [2]: 10.63 mg/dL
- POTASSIUM [2]: 5.99 MEQ/L
- SODIUM [2]: 141.85 MEQ/L
- TOTAL BILIRUBIN [2]: 0.2 mg/dL
- TOTAL PROTEIN [2]: 6.18 G/DL
- URIC ACID [2]: 0.52 mg/dL
- ABSOLUTE BASOPHIL [3]: 0 CELLS/uL
- ABSOLUTE EOSINOPHIL [3]: 0 CELLS/uL
- ABSOLUTE LYMPHOCYTE [3]: 14976.33 CELLS/uL
- ABSOLUTE MONOCYTE [3]: 50 CELLS/uL
- ABSOLUTE SEGMENTED NEUTROPHIL [3]: 1373.67 CELLS/uL
- BASOPHIL [3]: 0%
- EOSINOPHIL [3]: 0%
- ERYTHROCYTE COUNT [3]: 5.24 x10E6/uL
- HEMATOCRIT [3]: 34.53%
- HEMOGLOBIN [3]: 13.33 G/DL
- LEUKOCYTE COUNT [3]: 16.4 x10E3/uL
- LYMPHOCYTE [3]: 91.33%
- MEAN CORPUSCULAR HEMOGLOBIN [3]: 25.5 pg
- MEAN CORPUSCULAR HEMOGLOBIN CONCENTRATION [3]: 38.67 G/DL
- MEAN CORPUSCULAR VOLUME [3]: 65.87 fL
- MONOCYTE [3]: 0.33%
- NEUTROPHIL [3]: 8.33%
- NUCLEATED RED BLOOD CELLS [3]: 0.33 /100WBC
- PLATELET COUNT [3]: 1013.33 x10E3/uL
- ALANINE AMINOTRANSFERASE [3]: 52.67 u/L
- ALBUMIN [3]: 3.97 G/DL
- ALKALINE PHOSPHATASE [3]: 324 u/L
- ASPARTATE AMINOTRANSFERASE [3]: 77 u/L
- BLOOD UREA NITROGEN [3]: 13 mg/dL
- CARBON DIOXIDE [3]: 30 mmol/L
- CHLORIDE [3]: 98.33 MEQ/L
- CHOLESTEROL [3]: 80.67 mg/dL
- CREATINE PHOSPHOKINASE [3]: 196 u/L
- CREATININE [3]: 0.11 mg/dL
- GLUCOSE [3]: 165 mg/dL
- LACTATE DEHYDROGENASE [3]: 154 u/L
- LIPASE [3]: 9.33 u/L
- PHOSPHORUS [3]: 11.37 mg/dL
- POTASSIUM [3]: 6.42 MEQ/L
- SODIUM [3]: 143.1 MEQ/L
- TOTAL BILIRUBIN [3]: 0.2 mg/dL
- TOTAL PROTEIN [3]: 5.87 G/DL
- URIC ACID [3]: 0.83 mg/dL
- ABSOLUTE BASOPHIL [4]: 0 CELLS/uL
- ABSOLUTE EOSINOPHIL [4]: 59.33 CELLS/uL
- ABSOLUTE LYMPHOCYTE [4]: 8956 CELLS/uL
- ABSOLUTE MONOCYTE [4]: 157 CELLS/uL
- ABSOLUTE SEGMENTED NEUTROPHIL [4]: 561 CELLS/uL
- BASOPHIL [4]: 0%
- EOSINOPHIL [4]: 0.67%
- ERYTHROCYTE COUNT [4]: 5.03 x10E6/uL
- HEMATOCRIT [4]: 33.47%
- HEMOGLOBIN [4]: 12.9 G/DL
- LEUKOCYTE COUNT [4]: 9.73 x10E3/uL
- LYMPHOCYTE [4]: 91.67%
- MEAN CORPUSCULAR HEMOGLOBIN [4]: 25.73 pg
- MEAN CORPUSCULAR HEMOGLOBIN CONCENTRATION [4]: 38.57 G/DL
- MEAN CORPUSCULAR VOLUME [4]: 66.63 fL
- MONOCYTE [4]: 1.67%
- NEUTROPHIL [4]: 6%
- NUCLEATED RED BLOOD CELLS [4]: 0 /100WBC
- PLATELET COUNT [4]: 1159 x10E3/uL
- ALANINE AMINOTRANSFERASE [4]: 55.33 u/L
- ALBUMIN [4]: 3.87 G/DL
- ALKALINE PHOSPHATASE [4]: 346 u/L
- ASPARTATE AMINOTRANSFERASE [4]: 85.33 u/L
- BLOOD UREA NITROGEN [4]: 13.33 mg/dL
- CARBON DIOXIDE [4]: 33.67 mmol/L
- CHLORIDE [4]: 98.33 MEQ/L
- CHOLESTEROL [4]: 66.33 mg/dL
- CREATINE PHOSPHOKINASE [4]: 375.33 u/L
- CREATININE [4]: 0.18 mg/dL
- GLUCOSE [4]: 143.67 mg/dL
- LACTATE DEHYDROGENASE [4]: 176.67 u/L
- LIPASE [4]: 12.33 u/L
- PHOSPHORUS [4]: 11.3 mg/dL
- POTASSIUM [4]: 5.91 MEQ/L
- SODIUM [4]: 142.67 MEQ/L
- TOTAL BILIRUBIN [4]: 0.13 mg/dL
- TOTAL PROTEIN [4]: 5.9 G/DL
- URIC ACID [4]: 0.37 mg/dL
